According to patent publication US8883758B2, “3,5-disubstituted and 3,5,7-trisubstituted-3H-oxazolo and 3H-thiazolo[4,5-d]pyrimidin-2-one compounds and prodrugs thereof” (Anadys Pharmaceuticals, Inc., priority 2004, dated 2014):

Tested on: fresh cynomolgus monkey hepatocytes
Assay: Metabolism of Formula I prodrugs to 6-oxy metabolites in fresh cynomolgus monkey hepatocytes (LC/MS/MS)
Type: in vitro ADME
Method: A study was undertaken to evaluate the metabolic stability of Formula I compounds 14, 15, 13, 114, 30, 103, 67, 65, and 76 in the presence of fresh cynomolgus monkey hepatocytes and monitor the formation of 6-oxy metabolites, i.e., Formula II compounds and other compounds of the invention. For comparison, the metabolic stability of famciclovir was also assessed.
Fresh cynomolgus monkey hepatocyte suspension (Lot #: Cy141) was purchased from CellzDirect (Tucson, Ariz.). Hepatocyte Incubation Medium (serum-free, sterile) was purchased from In Vitro Technologies (Baltimore, Md.).
The cynomolgus monkey hepatocyte suspension was prepared from fresh cynomolgus monkey hepatocytes in hepatocyte incubation medium at the concentration of 1.25 million cells/mL. The final incubation concentration (after test article addition) was 1.0 million cells/mL.
Existing 100 mM stock solutions in DMSO were used. The concentrations of the test articles were checked using UV-vis microplate reader. Correction coefficients were determined using the absorbance of a freshly prepared DMSO stock of 122.
Reaction suspensions were prepared in removable 96-well tubes, each containing 320 μL of fresh cynomolgus monkey hepatocyte suspension at the density of 1.25 million cells per mL and 40 μL of hepatocyte incubation medium. The above mixtures were pre-incubated open at 37° C., 95% humidity and 5% CO2 for 30 minutes. Reactions were initiated by the addition of 40 μL of test article at 10× concentration to each tube to achieve the final concentrations of 50 μM for the test article(s) and 1 million/mL cell density. The reaction suspension in each tube was mixed by inverting the tube several times. Aliquots of 50 μL from each reaction suspension were distributed into six additional removable 96-well tubes (one tube per time point taken at 15, 30, 45, 60, 90, and 120 minutes). The open tubes were incubated at 37° C. under 95% humidity and 5% CO2.
At predetermined time points, reactions were terminated by the addition of 150 μL of the stop solution to each tube containing 50 μL of the reaction suspension. The composition of the stop solution was the following: 15 mL of acetonitrile (containing 1 μg/mL nebularine as an internal standard and 0.1% formic acid) combined with 1 mL water.
The calibration curves were prepared in the following way. To 80 μL of cell suspension (at the cell density of 1.25 million/mL) 10 μL of hepatocyte incubation medium and 10 μL of the appropriate concentration of the compound in hepatocyte incubation medium were added Immediately following the compound addition, 300 μL of the stop solution (see above) was added.
All quenched samples were kept on wet ice until they were processed for analysis. Then they were mixed using a bench top Multi-Tube Vortexer (VWR Scientific Products) for approximately 30 seconds, and centrifuged at 4,000 rpm (3,220 rcf) for 10 minutes at 4° C. Clear supernatant (100 μl) was transferred into a clean deep well 96-well plate, evaporated to dryness under nitrogen, reconstituted in 100 μL of 90:10 water:acetonitrile, and analyzed for the parent form and metabolites of the test article using an appropriate LC/MS/MS method.
The compounds were quantified on an API3000 LC/MS/MS instrument in the ESI-Positive MRM (multiple reaction monitoring) mode.

| Compound | Metabolism to the corresponding 6-oxy metabolite |
| --- | --- |
| Nc1ncc2sc(=O)n([C@@H]3O[C@H](CO)C[C@H]3O)c2n1 [Compound 13, 5-Amino-3-(3′-deoxy-β-D-ribofuranosyl)-3H-thiazolo[4,5-d]pyrimidin-2-one] | metabolized to yield the corresponding 6-oxy metabolites |
| CC(=O)OC[C@@H]1C[C@@H](OC(C)=O)[C@H](n2c(=O)sc3cnc(N)nc32)O1 [Compound 14, 5-Amino-3-(2′,5′-di-O-acetyl-3′-deoxy-β-D-ribofuranosyl)-3H-thiazolo[4,5-d]pyrimidin-2-one] | metabolized to yield the corresponding 6-oxy metabolites |
| CC(=O)O[C@@H]1C[C@@H](CO)O[C@H]1n1c(=O)sc2cnc(N)nc21 [Compound 15, 5-Amino-3-(2′-O-acetyl-3′-deoxy-β-D-ribofuranosyl)-3H-thiazolo[4,5-d]pyrimidin-2-one] | metabolized to yield the corresponding 6-oxy metabolites |
| C[C@@]1(O)[C@@H](CO)O[C@@H](n2c(=O)sc3cnc(N)nc32)[C@@H]1O [Compound 30, 5-Amino-3-(3′-methyl-β-D-ribofuransyl)-3H-thiazolo[4,5-d]pyrimidin-2-one] | metabolized to yield the corresponding 6-oxy metabolites |
| Nc1ncc2sc(=O)n(C3O[C@H](CO)[C@@H](CO)[C@H]3O)c2n1 (stereo partly drawn) [Compound 65, (3′S)-5-Amino-3-(3′-deoxy-3′-hydroxymethyl-β-D-ribofuranosyl)-3H-thiazolo[4,5-d]pyrimidin-2-one] | metabolized to yield the corresponding 6-oxy metabolites |
| CC(=O)OCC[C@H]1O[C@@H](n2c(=O)sc3cnc(N)nc32)[C@H](OC(C)=O)[C@@H]1OC(C)=O [Compound 67, 5-Amino-3-(5′-O-acetoxymethyl-2′,3′-di-O-acetyl-5′-deoxy-β-D-ribofuranosyl)-3H-thiazolo[4,5-d]pyrimidin-2-one] | metabolized to yield the corresponding 6-oxy metabolites |
| C=C1[C@@H](O)[C@H](n2c(=O)sc3cnc(N)nc32)O[C@@H]1CO [Compound 76, 5-Amino-3-(3′-deoxy-3′-methylidene-β-D-ribofuranosyl)-3H-thiazolo[4,5-d]pyrimidin-2-one] | metabolized to yield the corresponding 6-oxy metabolites |
| CC(=O)OC[C@H]1O[C@@H](n2c(=O)sc3cnc(N)nc32)[C@H](OC(C)=O)[C@@]1(C)OC(C)=O [Compound 103, 5-Amino-3-(3′-methyl, 2′,3′,5′-tri-O-acetyl-β-D-xylofuranosyl)-3H-thiazolo[4,5-d]pyrimidin-2-one] | metabolized to yield the corresponding 6-oxy metabolites |
| CC(=O)OC[C@H]1O[C@@H](n2c(=O)sc3cnc(N)nc32)[C@H](OC(C)=O)[C@H]1OC(C)=O [Compound 114, 5-Amino-3-(2′,3′,5′-tri-O-acetyl-β-D-xylofuranosyl)-3H-thiazolo[4,5-d]pyrimidin-2-one] | metabolized to yield the corresponding 6-oxy metabolites |
| CC(=O)OCC(CCn1cnc2cnc(N)nc21)COC(C)=O [Famciclovir, reference compound] | metabolized to yield the corresponding 6-oxy metabolites |
